Where two headings read alike, the source gives them in different places.
Tests used:
[1] = molecular target: SARS-CoV-2 3CL protease (Severe acute respiratory syndrome coronavirus 2, UniProt P0DTD1); test: Inhibitory activity test against SARS-CoV-2 3CL proteases; format: biochemical
[2] = test system: SARS-CoV-2; test: Inhibitory activity of cytopathic effect (CPE) in HEK293T/ACE2-TMPRSS2 cells; format: cell-based; conditions: Severe acute respiratory syndrome coronavirus 2, HEK-293T, 72 h
[3] = read-out: IC50 (50% SARS-CoV-2 3CL protease inhibitory concentration)
[4] = HEK293T/ACE2-TMPRSS2 cells, cultured 3 days, CellTiter-Glo 2.0 luminescence, read-out: EC50 (50% SARS-CoV-2 infected cell death inhibitory concentration)
[5] = 50% SARS-CoV-2 infected cell death inhibitory concentration, HEK293T/ACE2-TMPRSS2 cells, CellTiter-Glo 2.0 after 3 days culture, read-out: EC50
[6] = IC50 (50% SARS-CoV-2 3CL protease inhibitory concentration)

SMILES	IC50 [1, 3] [µM]	EC50 [2, 4] [µM]	also measured
O=c1c2c(=O)n(-c3cnc4cc(F)ccn34)c(=O)n(-c3ccc(F)c(Cl)c3)c2cc2n1C[C@@H]1CCCCN21 [Compound I-0988]	< 0.1	0.1 to 1	
COc1nc(N2CC[C@@H](C#N)C2)cc2c1c(=O)n(-c1cnc3cc(F)ccn13)c(=O)n2-c1ccc(F)c(C(F)F)c1 [Compound I-0958]	< 0.1	< 0.1	
COc1nc(N2CC[C@@H](C#N)C2)cc2c1c(=O)n(-c1cncc(Cl)c1)c(=O)n2-c1ccc(F)c(F)c1 [Compound I-0949]	< 0.1	< 0.1	
O=c1[nH]c(N2CCC[C@@H]2CO)cc2c1c(=O)n(-c1cnc3ccccn13)c(=O)n2Cc1cc(F)c(F)c(Cl)c1 [Compound I-0623]	< 0.1	< 0.1	
[2H]C([2H])([2H])O[C@@H]1CCN(c2cc3c(c(OC)n2)c(=O)n(-c2cncc(C)c2)c(=O)n3-c2ccc(F)c(Cl)c2)C1 [Compound I-0937]	0.0013		EC50 [2, 5]: 0.00556 µM
Cc1cncc(-n2c(=O)c3c(n(Cc4cc(F)c(F)c(F)c4)c2=O)CN(c2cc(C#N)ccc2Cl)CC3)c1 [Compound I-0658]	0.1 to 1	0.1 to 1	
COc1nc(N2CC[C@@H](O)C2)cc2c1c(=O)n(-c1cncc(OC(F)F)c1)c(=O)n2-c1ccc(F)c(F)c1 [Compound I-1040]	< 0.1	< 0.1	
COc1cc(-c2cc(C#N)ccc2Cl)cc2c1c(=O)n(Cc1ncn(C)n1)c(=O)n2[C@H](C)c1cc(F)c(F)c(F)c1 [Compound I-0595]	< 0.1	< 0.1	
[2H]C([2H])([2H])O[C@@H]1CCN(c2cc3c(c(OC)n2)c(=O)n(-c2cncc(OC(F)F)c2)c(=O)n3-c2ccc(F)c(F)c2)C1 [Compound I-1038]	< 0.1	< 0.1	
COc1nc2c(=O)n(Cc3ncn(C)n3)c(=O)n(Cc3cc(F)c(F)c(C#N)c3)c2cc1-c1cc(C#N)ccc1Cl [Compound I-0721]	< 0.1	< 0.1	
COc1nc(N2CC[C@@H](O)C2)cc2c1c(=O)n(-c1cncc(C#N)c1)c(=O)n2-c1ccc(F)c(Cl)c1 [Compound I-0957]	0.0032		EC50 [2, 5]: 0.00814 µM
COc1nc2c(=O)n(Cc3ncn(C)n3)c(=O)n(Cc3cc(Cl)cc(Cl)c3)c2cc1-c1cc(C#N)ccc1Cl [Compound I-0550]	< 0.1	< 0.1	
Cn1c(-c2cc(C#N)ccc2Cl)cc2c(c1=O)c(=O)n(-c1cnc3cc(F)ccn13)c(=O)n2Cc1cc(F)c(F)c(F)c1 [Compound I-0727]	0.0011		EC50 [2, 5]: 0.102 µM
COc1cc(-c2ncc(N)cc2Cl)cc2c1c(=O)n(Cc1ncn(C)n1)c(=O)n2Cc1cc(F)c(F)c(F)c1 [Compound I-0834]	< 0.1	< 0.1	
Cn1cnc(Cn2c(=O)c3c(cc(-c4cc(C#N)ccc4Cl)n4ncnc34)n(Cc3cc(F)c(F)c(F)c3)c2=O)n1 [Compound I-0645]	0.1 to 1	0.1 to 1	
COc1nc(N2CCC(F)(F)C2)cc2c1c(=O)n(-c1cncc(F)c1)c(=O)n2-c1ccc(F)c(Cl)c1 [Compound I-0998]	< 0.1	< 0.1	
COc1nc(N2CC[C@@H](F)C2)cc2c1c(=O)n(Cc1ncn(C)n1)c(=O)n2-c1cc(Cl)c(F)c(Cl)c1 [Compound I-0803]	0.032		EC50 [2, 5]: 0.0176 µM
Cn1cnc(Cn2c(=O)c3c4c(c(N5CCCC5=O)cc3n(Cc3cc(F)c(F)c(Cl)c3)c2=O)CCO4)n1 [Compound I-0871]	0.0066		EC50 [2, 5]: 0.011 µM
COc1nc(N2CC[C@H](OC)C2)cc2c1c(=O)n(-c1cnc3cc(F)ccn13)c(=O)n2-c1ccc(F)c(Cl)c1 [Compound I-0742]	< 0.1	< 0.1	
Cn1cnc(Cn2c(=O)c3c4nccnc4c(NC4CC5CC5C4)cc3n(Cc3cc(F)c(F)c(Cl)c3)c2=O)n1 (stereo not shown) [Compound I-0586]	< 0.1	< 0.1	
COc1nc(N2CCC(F)(F)C2)cc2c1c(=O)n(-c1cc(C)cnn1)c(=O)n2-c1ccc(F)c(Cl)c1 [Compound I-1003]	< 0.1	< 0.1	
COc1nc(N2CC[C@H](CO)C2)cc2c1c(=O)n(-c1cnc3cc(F)ccn13)c(=O)n2-c1ccc(F)c(Cl)c1 [Compound I-0749]	< 0.1	< 0.1	
COc1nc(N2C[C@@H](F)[C@@H](OC)C2)cc2c1c(=O)n(-c1cnc3cc(F)ccn13)c(=O)n2-c1ccc(F)c(Cl)c1 [Compound I-1052]	< 0.1	< 0.1	
COc1nc(N2CC(F)(F)C2)cc2c1c(=O)n(-c1cnc3cc(F)ccn13)c(=O)n2-c1ccc(F)c(Cl)c1 [Compound I-1035]		< 0.1	IC50 [1, 6]: < 0.1 µM
CCN(CC)c1cc2c(c(OC)n1)c(=O)n(-c1cnc3cc(F)ccn13)c(=O)n2-c1ccc(F)c(Cl)c1 [Compound I-1058]	< 0.1	< 0.1	

SMILES	IC50 [1, 3] [µM]	EC50 [2, 4] [µM]	also measured
CCCn1c(-c2cc(C#N)ccc2Cl)cc2c(c1=O)c(=O)n(-c1cncc(Cl)c1)c(=O)n2Cc1cc(F)c(F)c(F)c1 [Compound I-0686]	0.0017		EC50 [2, 5]: 0.0224 µM
COc1cc(N2[C@@H]3CC[C@H]2CNC3)cc2c1c(=O)n(-c1cnc3cc(F)ccn13)c(=O)n2Cc1cc(Cl)c(F)cc1C [Compound I-0650]			IC50 [1, 6]: 0.0012 µM; EC50 [2]: 0.0273 µM
COc1nc2c(=O)n(Cc3ncn(C)n3)c(=O)n(Cc3cc(C#N)c(F)cc3C)c2cc1-c1cc(C#N)ccc1Cl [Compound I-0723]	< 0.1	< 0.1	
O=c1c2c(=O)n(-c3cnc4cc(F)ccn34)c(=O)n(-c3ccc(F)c(Cl)c3)c2cc2n1C[C@@H]1CCCN21 [Compound I-0628]	0.026		EC50 [2, 5]: 0.661 µM
COc1nc(N2CC(F)C2)cc2c1c(=O)n(-c1cnc3cc(F)ccn13)c(=O)n2-c1ccc(F)c(Cl)c1 [Compound I-0987]	< 0.1	< 0.1	
Cn1cnc(Cn2c(=O)c3c4c(c(-c5cc(C#N)ccc5Cl)cc3n(Cc3cc(F)c(F)c(Cl)c3)c2=O)CCO4)n1 [Compound I-0811]	< 0.1	< 0.1	
COc1nc(N2CC(C#N)C2)cc2c1c(=O)n(-c1cnc3cc(F)ccn13)c(=O)n2-c1ccc(F)c(Cl)c1 [Compound I-1017]	< 0.1	< 0.1	
COc1cc(-c2cc(C#N)ccc2Br)cc2c1c(=O)n(Cc1ncn(C)n1)c(=O)n2Cc1cc(F)c(F)c(F)c1 [Compound I-0891]	0.01		EC50 [2, 5]: 0.0121 µM
Cn1cnc(Cn2c(=O)c3c(=O)n(C)c(N4C[C@@H]5CC[C@H]4C5)cc3n(Cc3cc(F)c(F)c(Cl)c3)c2=O)n1 [Compound I-0930]	< 0.1	0.1 to 1	
Cn1cnc(Cn2c(=O)c3c(=O)n(C)c(N4CCC(F)(F)C4)cc3n(Cc3cc(F)c(F)c(Cl)c3)c2=O)n1 [Compound I-0931]	< 0.1	0.1 to 1	
O=c1c2c(=O)n(-c3cnc4cc(F)ccn34)c(=O)n(-c3ccc(F)c(Cl)c3)c2cc2n1CC[C@@H]1CCCCN21 [Compound I-1048]	0.023		EC50 [2, 5]: 0.436 µM
Cn1cnc(Cn2c(=O)c3c4c(c(-c5cc(C#N)ccc5Cl)cc3n(Cc3cc(F)c(F)c(F)c3)c2=O)[C@@H](O)CO4)n1 [Compound I-0864]	0.0014		EC50 [2, 5]: 0.0462 µM
COc1nc(N2C[C@@H](F)[C@@H](F)C2)cc2c1c(=O)n(-c1cnc3cc(F)ccn13)c(=O)n2-c1ccc(F)c(F)c1 [Compound I-1020]	< 0.1	< 0.1	
COc1cc(-c2cc3cc[nH]c3cc2Cl)cc2c1c(=O)n(Cc1ncn(C)n1)c(=O)n2Cc1cc(F)c(F)c(F)c1 [Compound I-0901]	< 0.1	< 0.1	
COc1nc(N2CC[C@@H](C#N)C2)cc2c1c(=O)n(-c1cncc(Cl)c1)c(=O)n2-c1ccc(F)c(Cl)c1 [Compound I-0936]	0.0011		EC50 [2, 5]: 0.00534 µM
COc1nc2c(=O)n(Cc3ncn(C)n3)c(=O)n(Cc3cc(F)c(F)c(Cl)c3)c2cc1-c1nc(C(=O)NC2COC2)ccc1Cl [Compound I-0885]	< 0.1	< 0.1	
COc1nc2c(=O)n(Cc3ncn(C)n3)c(=O)n(Cc3cc(F)c(F)c(Cl)c3)c2cc1-c1nc(C(=O)NC2(C)COC2)ccc1Cl [Compound I-0886]	< 0.1	< 0.1	
COc1nc(N2[C@@H]3CC[C@H]2COC3)cc2c1c(=O)n(-c1cnc3cc(F)ccn13)c(=O)n2-c1ccc(F)c(Cl)c1 [Compound I-1001]			IC50 [1, 6]: < 0.1 µM; EC50 ([2]; read-out: EC50 (50% SARS-CoV-2 infected cell death inhibitory concentration)): < 0.1 µM
COc1cc(-c2cc(C3(O)CC3)ccc2Cl)cc2c1c(=O)n(Cc1ncn(C)n1)c(=O)n2Cc1cc(F)c(F)c(F)c1 [Compound I-0546]	< 0.1	< 0.1	
Cn1cnc(Cn2c(=O)c3c4nccnc4c(N4CC(F)(F)C(F)(F)C4)cc3n(Cc3cc(F)c(F)c(Cl)c3)c2=O)n1 [Compound I-0570]	0.026		EC50 [2, 5]: 0.0247 µM
COc1nc(N2CCC(O)(CF)C2)cc2c1c(=O)n(-c1cncc(Cl)c1)c(=O)n2-c1ccc(F)c(Cl)c1 (stereo not shown) [Compound I-1004]	< 0.1	< 0.1	
COc1nc(N2C[C@@H]3C[C@H]2CO3)cc2c1c(=O)n(-c1cncc(C#N)c1)c(=O)n2-c1ccc(F)c(Cl)c1 [Compound I-0940]	0.0017		EC50 [2, 5]: 0.00566 µM
COc1nc(N2CCC(F)(F)C2)cc2c1c(=O)n(-c1cnc3ccc(C#N)cn13)c(=O)n2-c1ccc(F)c(Cl)c1 [Compound I-0654]	< 0.1	< 0.1	
COC[C@@H](C)Nc1cc2c(c(OC)n1)c(=O)n(-c1cnc3cc(F)ccn13)c(=O)n2-c1ccc(F)c(Cl)c1 [Compound I-1061]	< 0.1	< 0.1	
COc1nc(N2CC[C@@H](C(C)(C)O)C2)cc2c1c(=O)n(-c1cncc(Cl)c1)c(=O)n2-c1ccc(F)c(Cl)c1 [Compound I-1059]	< 0.1	< 0.1	
